Data: patent US20120021014A1, “CORROSION CURRENT-GENERATING METAL PARTICULATES AND USE THEREOF” (priority 2010, published 2012)

How the values were obtained:
[1] = tested on: human keratinocyte cells; assay: Hydrogen peroxide production in human keratinocytes (CM-H2DCFDA fluorescence); type: cell-based; conditions: 0.03% positive control; 60 Minutes
Protocol: The cells were treated with different amounts of the magnesium powder.

[2] = tested on: Albino male CD-1 mice; assay: Oxazolone immune cell-mediated skin inflammation model (ear biopsy weight); type: in vivo; conditions: 1 mg/ml positive control, topical to ear; 24 hours
[3] = tested on: male albino Wistar rats (SPRAGUE DAWLEY); assay: CFA-induced ankle arthritis, incapacitance test (weight bearing); type: in vivo; conditions: positive control, 3 mg/kg once daily prior to the functional measurements
[4] = tested on: male albino Wistar rats (SPRAGUE DAWLEY); assay: CFA-induced ankle arthritis, joint swelling (paw volume difference); type: in vivo; conditions: positive control, 3 mg/kg once daily; CFA-induced paw vs control paw

OO [H2O2, hydrogen peroxide]
Hydrogen peroxide production (fluorescence 485 nm excitation/530 nm emission) [1]: 150.11 ± 2.9

C[C@]12CCC(=O)C=C1CC[C@@H]1[C@@H]2[C@@H](O)C[C@@]2(C)[C@H]1CC[C@]2(O)C(=O)CO [Hydrocortisone, hydrocortisone]
Percent Inhibition of Skin Inflammation [2]: 70.3% ± 6.6%

CN1CC[C@]23c4c5ccc(O)c4O[C@H]2[C@@H](O)C=C[C@H]3[C@H]1C5.O=S(=O)(O)O [Morphine, morphine sulphate]
Deficiency Improvement, MEAN IMPROVEMENT (weight bearing percent minus Day 4 baseline, averaged over all time points) [3]: 16.85 | MEAN PAW VOLUME DIFFERENCE [4]: 1.38 mL
